The source made the active and inactive calls. The rule behind the calls is not given here.
biological target: T1, P2X purinoceptor 3 (Rattus norvegicus) (UniProt P49654); experiment: Antagonist activity against rat P2X3 receptor expressed in CHOK1 cells assessed as inhibition of alpha,beta-meATP-induced calcium response incubated for 20 mins by Fluo-3AM dye based FLIPR assay; assay type: functional, cell-based; conditions: CHO-K1
T1 sequence (whole entry): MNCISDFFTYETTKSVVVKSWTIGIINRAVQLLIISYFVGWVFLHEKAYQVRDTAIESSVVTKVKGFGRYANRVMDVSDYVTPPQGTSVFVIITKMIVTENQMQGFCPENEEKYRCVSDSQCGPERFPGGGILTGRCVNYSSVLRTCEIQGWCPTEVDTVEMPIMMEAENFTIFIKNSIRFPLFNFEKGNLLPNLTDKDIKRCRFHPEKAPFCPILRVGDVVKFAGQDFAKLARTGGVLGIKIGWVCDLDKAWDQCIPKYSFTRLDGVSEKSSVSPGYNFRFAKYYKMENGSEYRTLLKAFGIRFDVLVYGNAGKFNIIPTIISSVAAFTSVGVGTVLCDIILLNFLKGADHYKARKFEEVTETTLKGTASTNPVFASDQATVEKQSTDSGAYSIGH

inhibition, active:
Cc1cccc2cc(Oc3cnc(N)nc3N)c(C(C)C)nc12, CC(C)c1cc2ncccc2cc1Oc1cnc(NC(CO)CO)nc1N, Cc1cccc2cc(Oc3cnc(N)nc3N)c(C(C)C)cc12, Cc1ccc2nc(C(C)C)c(Oc3cnc(N)nc3N)cc2c1, COc1ccc2cc(Oc3cnc(N)nc3N)c(C(C)C)cc2c1, CC(C)c1cc2cccnc2cc1Oc1cnc(N)nc1N, Cc1cccc2cc(C(C)C)c(Oc3cnc(N)nc3N)cc12, Nc1ncc(Oc2cc3ccccc3cc2I)c(N)n1, CC(C)c1nc2ccccc2cc1Oc1cnc(N)nc1N, Cc1nccc2cc(Oc3cnc(N)nc3N)c(C(C)C)cc12
